# Source: patent publication US20240158370A1, “CK1 alpha AND DUAL CK1 alpha / GSPT1 DEGRADING COMPOUNDS” (Innovo Therapeutics, Inc., priority 2022, published 2024)
# Columns and labels:
# GSPT1 = GSPT1 (Homo sapiens, UniProt P15170+Q96SW2); test: HiBiT degradation assay, GSPT1, Procedure A; assay type: cell-based; set-up: HiBit-GSPT1 KI HEK293(LgBit) Cells; host or cells: HEK293(LgBit) knock-in cells; details: six hours
# Procedure, shortened: (§1)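 10-pt dose response, 10–0.005 μM, 0.1% DMSO; cells 1×10^6/ml in DMEM/10% FBS, 6 h, 37° C; HiBiT lytic detection, luminescence; DC50 + Ymin by 4-parameter fit.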
# CK1α = target: T1, CK1α (Homo sapiens, UniProt P48729+Q96SW2); test: HiBiT degradation assay, CK1α, Procedure A; assay type: cell-based; details: six hours
# T1 construct: CSNK1A1-HiBit KI HEK293(LgBit) Cells; host or cells: HEK293(LgBit) knock-in cells
# Procedure, shortened: as §1
# GSPT1, sequence (P15170 whole entry): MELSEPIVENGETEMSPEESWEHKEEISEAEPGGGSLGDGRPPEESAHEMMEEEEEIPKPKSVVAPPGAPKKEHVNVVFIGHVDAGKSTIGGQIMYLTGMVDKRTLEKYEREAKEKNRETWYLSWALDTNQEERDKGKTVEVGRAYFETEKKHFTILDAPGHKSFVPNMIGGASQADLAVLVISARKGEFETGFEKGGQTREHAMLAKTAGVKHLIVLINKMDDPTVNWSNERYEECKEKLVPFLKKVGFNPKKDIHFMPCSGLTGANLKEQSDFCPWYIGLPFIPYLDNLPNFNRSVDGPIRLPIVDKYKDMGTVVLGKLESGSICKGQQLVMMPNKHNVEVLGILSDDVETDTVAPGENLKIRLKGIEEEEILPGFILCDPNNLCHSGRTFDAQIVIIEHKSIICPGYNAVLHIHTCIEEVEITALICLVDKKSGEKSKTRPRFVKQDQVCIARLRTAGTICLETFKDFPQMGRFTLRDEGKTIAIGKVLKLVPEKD
# GSPT1, sequence (Q96SW2 whole entry): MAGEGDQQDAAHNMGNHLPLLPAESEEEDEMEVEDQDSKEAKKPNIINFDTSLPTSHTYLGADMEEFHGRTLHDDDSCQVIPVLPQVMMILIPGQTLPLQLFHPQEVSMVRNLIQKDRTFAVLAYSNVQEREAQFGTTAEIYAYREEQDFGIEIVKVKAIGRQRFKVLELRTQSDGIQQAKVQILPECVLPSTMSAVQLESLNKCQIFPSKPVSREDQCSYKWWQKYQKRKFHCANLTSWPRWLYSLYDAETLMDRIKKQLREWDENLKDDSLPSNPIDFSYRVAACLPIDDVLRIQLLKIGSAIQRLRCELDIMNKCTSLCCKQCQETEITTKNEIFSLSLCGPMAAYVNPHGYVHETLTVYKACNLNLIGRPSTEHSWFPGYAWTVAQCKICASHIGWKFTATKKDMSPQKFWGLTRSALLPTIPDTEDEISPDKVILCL
# GSPT1, sequence (Q16531 whole entry partner): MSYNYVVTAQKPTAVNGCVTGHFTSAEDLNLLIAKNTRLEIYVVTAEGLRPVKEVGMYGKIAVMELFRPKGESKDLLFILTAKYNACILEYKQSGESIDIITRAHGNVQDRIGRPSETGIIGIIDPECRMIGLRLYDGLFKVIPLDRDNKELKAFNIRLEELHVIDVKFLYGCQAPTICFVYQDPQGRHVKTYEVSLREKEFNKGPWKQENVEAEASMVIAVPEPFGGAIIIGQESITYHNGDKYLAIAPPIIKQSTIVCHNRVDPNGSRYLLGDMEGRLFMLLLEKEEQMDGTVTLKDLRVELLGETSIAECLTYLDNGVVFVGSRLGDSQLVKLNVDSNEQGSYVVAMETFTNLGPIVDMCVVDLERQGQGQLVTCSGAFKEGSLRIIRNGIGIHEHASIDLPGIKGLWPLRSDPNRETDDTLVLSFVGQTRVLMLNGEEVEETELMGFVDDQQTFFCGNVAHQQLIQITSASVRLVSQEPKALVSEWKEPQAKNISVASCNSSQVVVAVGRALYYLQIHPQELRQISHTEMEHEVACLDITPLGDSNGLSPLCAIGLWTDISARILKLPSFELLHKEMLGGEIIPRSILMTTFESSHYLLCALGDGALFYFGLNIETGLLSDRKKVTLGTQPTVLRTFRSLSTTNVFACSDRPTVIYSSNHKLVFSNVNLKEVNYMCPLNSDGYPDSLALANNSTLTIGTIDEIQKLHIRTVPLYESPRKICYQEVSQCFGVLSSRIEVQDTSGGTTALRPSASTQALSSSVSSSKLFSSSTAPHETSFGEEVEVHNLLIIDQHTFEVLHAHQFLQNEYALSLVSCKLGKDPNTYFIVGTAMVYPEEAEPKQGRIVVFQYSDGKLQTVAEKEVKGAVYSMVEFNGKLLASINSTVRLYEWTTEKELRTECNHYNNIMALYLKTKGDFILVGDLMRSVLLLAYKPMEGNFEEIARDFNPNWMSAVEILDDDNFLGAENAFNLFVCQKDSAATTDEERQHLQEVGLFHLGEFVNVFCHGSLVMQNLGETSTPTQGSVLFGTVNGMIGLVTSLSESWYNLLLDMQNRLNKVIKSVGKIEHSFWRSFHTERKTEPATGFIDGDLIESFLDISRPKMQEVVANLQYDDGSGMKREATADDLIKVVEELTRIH
# T1 sequence (P48729 whole entry): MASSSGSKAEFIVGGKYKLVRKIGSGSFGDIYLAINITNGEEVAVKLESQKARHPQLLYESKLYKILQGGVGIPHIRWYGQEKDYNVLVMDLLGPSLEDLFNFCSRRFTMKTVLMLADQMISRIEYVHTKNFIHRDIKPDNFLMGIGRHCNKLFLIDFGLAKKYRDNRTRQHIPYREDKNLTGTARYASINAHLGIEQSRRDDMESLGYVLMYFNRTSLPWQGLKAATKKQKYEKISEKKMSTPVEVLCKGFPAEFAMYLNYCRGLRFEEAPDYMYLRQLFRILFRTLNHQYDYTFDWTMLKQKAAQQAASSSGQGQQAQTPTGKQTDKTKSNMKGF
# T1 sequence (Q96SW2 whole entry): as the sequence (Q96SW2 whole entry) above
# T1 sequence (Q16531 whole entry partner): as the sequence (Q16531 whole entry partner) above
DC50 (GSPT1) [nM],GSPT1 Ymin (GSPT1),CK1α Ymin (CK1α),DC50 (CK1α) [nM],SMILES
< 25,F (F = >75-100% remaining),C (C = 0-10% remaining),< 25,COc1cc(-c2nc(-c3ccc4c(c3)CN(C3CCC(=O)NC3=O)C4=O)cn2C)ccc1F (centres unmarked) [Example 583]
≥ 25,F (F = >75-100% remaining),C (C = 0-10% remaining),< 25,COc1ccc(-c2nc(-c3ccc4c(c3)CN(C3CCC(=O)NC3=O)C4=O)cn2C)cc1Cl (centres unmarked) [Example 584]
≥ 25,F (F = >75-100% remaining),C (C = 0-10% remaining),< 25,Cn1cc(-c2ccc3c(c2)CN(C2CCC(=O)NC2=O)C3=O)nc1-c1cc(F)cc(Cl)c1 (centres unmarked) [Example 586]
≥ 25,F (F = >75-100% remaining),C (C = 0-10% remaining),< 25,Cn1cc(-c2ccc3c(c2)CN(C2CCC(=O)NC2=O)C3=O)nc1-c1ccc(C(F)F)cc1 (centres unmarked) [Example 587]
≥ 25,F (F = >75-100% remaining),E (E = >25-75% remaining),< 25,Cn1ncc(-c2ccc3c(c2)CN(C2CCC(=O)NC2=O)C3=O)c1C1=CCCCC1 (centres unmarked) [Example 589]
≥ 25,F (F = >75-100% remaining),E (E = >25-75% remaining),≥ 25,Cn1ncc(-c2ccc3c(c2)CN(C2CCC(=O)NC2=O)C3=O)c1C1CCOC1 (centres unmarked) [Example 592]
≥ 25,F (F = >75-100% remaining),E (E = >25-75% remaining),≥ 25,Cn1ncc(-c2ccc3c(c2)CN(C2CCC(=O)NC2=O)C3=O)c1C1=CCOC1 (centres unmarked) [Example 593]
≥ 25,F (F = >75-100% remaining),D (D = >10- 25% remaining),< 25,Cn1cnc(-c2ccc3c(c2)CN(C2CCC(=O)NC2=O)C3=O)c1C1=CCCCC1 (centres unmarked) [Example 595]
≥ 25,E (E = >25-75% remaining),D (D = >10- 25% remaining),< 25,Cn1cnc(-c2ccc3c(c2)CN(C2CCC(=O)NC2=O)C3=O)c1C1=CCOC1 (centres unmarked) [Example 598]
≥ 25,F (F = >75-100% remaining),E (E = >25-75% remaining),< 25,"Cn1nc(-c2ccc3c(c2)CN(C2CCC(=O)NC2=O)C3=O)nc1C1CCOCC1 (centres unmarked) [Example 599, 3-(5-(1-methyl-5-(tetrahydro-2H-pyran-4-yl)-1H-1,2,4-triazol-3-yl)-1-oxoisoindolin-2-yl)piperidine-2,6-dione]"
≥ 25,F (F = >75-100% remaining),C (C = 0-10% remaining),< 25,"Cn1c(C2CCOCC2)nc(-c2ccc3c(c2)CN(C2CCC(=O)NC2=O)C3=O)c1C1CC1 (centres unmarked) [Example 604, 3-(5-(5-cyclopropyl-1-methyl-2-(tetrahydro-2H-pyran-4-yl)-1H-imidazol-4-yl)-1-oxoisoindolin-2-yl)piperidine-2,6-dione]"
≥ 25,F (F = >75-100% remaining),D (D = >10- 25% remaining),< 25,"Cn1nc(-c2ccc3c(c2)CN(C2CCC(=O)NC2=O)C3=O)nc1N1CCC2(CC1)CC2 (centres unmarked) [Example 608, 3-(5-(1-methyl-5-(6-azaspiro[2.5]octan-6-yl)-1H-1,2,4-triazol-3-yl)-1-oxoisoindolin-2-yl)piperidine-2,6-dione]"
≥ 25,F (F = >75-100% remaining),E (E = >25-75% remaining),< 25,"Cn1nc(-c2ccc3c(c2)CN(C2CCC(=O)NC2=O)C3=O)nc1N1Cc2ccccc2C1 (centres unmarked) [Example 609, 3-(5-(5-(isoindolin-2-yl)-1-methyl-1H-1,2,4-triazol-3-yl)-1-oxoisoindolin-2-yl)piperidine-2,6-dione]"
≥ 25,E (E = >25-75% remaining),D (D = >10- 25% remaining),< 25,"CC(C)n1nc(-c2ccccc2)nc1-c1ccc2c(c1)CN(C1CCC(=O)NC1=O)C2=O (centres unmarked) [Example 610, 3-(5-(1-isopropyl-3-phenyl-1H-1,2,4-triazol-5-yl)-1-oxoisoindolin-2-yl)piperidine-2,6-dione]"
≥ 25,F (F = >75-100% remaining),C (C = 0-10% remaining),< 25,"Cn1nc(-c2ccc3c(c2)CN(C2CCC(=O)NC2=O)C3=O)nc1N1CCCCCC1 (centres unmarked) [Example 611, 3-(5-(5-(azepan-1-yl)-1-methyl-1H-1,2,4-triazol-3-yl)-1-oxoisoindolin-2-yl)piperidine-2,6-dione]"
≥ 25,F (F = >75-100% remaining),E (E = >25-75% remaining),< 25,"Cn1nc(-c2ccc3c(c2)CN(C2CCC(=O)NC2=O)C3=O)nc1N1CCC(F)(F)CC1 (centres unmarked) [Example 613, 3-(5-(5-(4,4-difluoropiperidin-1-yl)-1-methyl-1H-1,2,4-triazol-3-yl)-1-oxoisoindolin-2-yl)piperidine-2,6-dione]"

# Second part, the compound before the results:
SMILES,DC50 (GSPT1) [nM],GSPT1 Ymin (GSPT1),CK1α Ymin (CK1α),DC50 (CK1α) [nM]
Cn1cc(-c2ccc3c(c2)CN(C2CCC(=O)NC2=O)C3=O)nc1-c1ccn2ccnc2c1 (centres unmarked) [Example 585],< 25,F (F = >75-100% remaining),D (D = >10- 25% remaining),≥ 25
CN1CCC(c2c(-c3ccc4c(c3)CN(C3CCC(=O)NC3=O)C4=O)cnn2C)CC1 (centres unmarked) [Example 590],≥ 25,F (F = >75-100% remaining),E (E = >25-75% remaining),≥ 25
CN1CC=C(c2c(-c3ccc4c(c3)CN(C3CCC(=O)NC3=O)C4=O)cnn2C)CC1 (centres unmarked) [Example 591],< 25,F (F = >75-100% remaining),E (E = >25-75% remaining),≥ 25
CN1CC=C(c2c(-c3ccc4c(c3)CN(C3CCC(=O)NC3=O)C4=O)ncn2C)CC1 (centres unmarked) [Example 596],≥ 25,F (F = >75-100% remaining),C (C = 0-10% remaining),≥ 25
Cn1cnc(-c2ccc3c(c2)CN(C2CCC(=O)NC2=O)C3=O)c1C1CCOC1 (centres unmarked) [Example 597],≥ 25,F (F = >75-100% remaining),E (E = >25-75% remaining),≥ 25
"CC1CCN(c2nc(-c3ccc4c(c3)CN(C3CCC(=O)NC3=O)C4=O)nn2C)CC1 (centres unmarked) [Example 600, 3-(5-(1-methyl-5-(4-methylpiperidin-1-yl)-1H-1,2,4-triazol-3-yl)-1-oxoisoindolin-2-yl)piperidine-2,6-dione]",≥ 25,F (F = >75-100% remaining),D (D = >10- 25% remaining),< 25
"Cn1nc(-c2ccc3c(c2)CN(C2CCC(=O)NC2=O)C3=O)nc1N1CCc2ccccc2C1 (centres unmarked) [Example 603, 3-(5-(5-(3,4-dihydroisoquinolin-2 (1H)-yl)-1-methyl-1H-1,2,4-triazol-3-yl)-1-oxoisoindolin-2-yl)piperidine-2,6-dione]",≥ 25,F (F = >75-100% remaining),D (D = >10- 25% remaining),< 25
"Cn1nc(-c2ccc3c(c2)CN(C2CCC(=O)NC2=O)C3=O)nc1C1CCC(C)(C)CC1 (centres unmarked) [Example 605, 3-(5-(5-(4,4-dimethylcyclohexyl)-1-methyl-1H-1,2,4-triazol-3-yl)-1-oxoisoindolin-2-yl)piperidine-2,6-dione]",≥ 25,F (F = >75-100% remaining),E (E = >25-75% remaining),< 25
"O=C1CCC(N2Cc3cc(-n4cncc4-c4ccccc4)ccc3C2=O)C(=O)N1 (centres unmarked) [Example 607, 3-(1-oxo-5-(5-phenyl-1H-imidazol-1-yl)isoindolin-2-yl)piperidine-2,6-dione]",≥ 25,F (F = >75-100% remaining),E (E = >25-75% remaining),≥ 25
"Cn1nc(-c2ccc3c(c2)CN(C2CCC(=O)NC2=O)C3=O)nc1N1CCC(C)(C)CC1 (centres unmarked) [Example 612, 3-(5-(5-(4,4-dimethylpiperidin-1-yl)-1-methyl-1H-1,2,4-triazol-3-yl)-1-oxoisoindolin-2-yl)piperidine-2,6-dione]",≥ 25,F (F = >75-100% remaining),D (D = >10- 25% remaining),< 25
"Cn1nc(-c2ccc3c(c2)CN(C2CCC(=O)NC2=O)C3=O)nc1[C@H]1CC[C@H](C)CC1 (some centres unmarked) [Example 616, 3-(5-(1-methyl-5-((1r,4r)-4-methylcyclohexyl)-1H-1,2,4-triazol-3-yl)-1-oxoisoindolin-2-yl)piperidine-2,6-dione]",≥ 25,F (F = >75-100% remaining),E (E = >25-75% remaining),≥ 25
"Cn1nc(-c2ccc3c(c2)CN(C2CCC(=O)NC2=O)C3=O)nc1[C@H]1CC[C@@H](C)CC1 (some centres unmarked) [Example 617, 3-(5-(1-methyl-5-((1s,4s)-4-methylcyclohexyl)-1H-1,2,4-triazol-3-yl)-1-oxoisoindolin-2-yl)piperidine-2,6-dione]",< 25,F (F = >75-100% remaining),E (E = >25-75% remaining),< 25
"Cc1cn(-c2ccc3c(c2)CN(C2CCC(=O)NC2=O)C3=O)nc1-c1ccccc1 (centres unmarked) [Example 618, 3-(5-(4-methyl-3-phenyl-1H-pyrazol-1-yl)-1-oxoisoindolin-2-yl)piperidine-2,6-dione]",≥ 25,F (F = >75-100% remaining),D (D = >10- 25% remaining),< 25
